Read-outs that look alike come from different tables or passages of the source. Each block holds one compound with its values, some of them ahead of it.
How the values were obtained:
[1] = target: T1, CYP 3A4 (Homo sapiens, UniProt P08684); assay: Kinetics of fluorogenic substrates with CYP 3A4; type: biochemical
T1 construct: NADPH regenerating system
Text: Whichever of the four abstractable hydrogen atoms (designated H^1 and H^2 in this representation of BOMR) is removed in the initial reaction step, with reference to Reaction Scheme 1 of FIG. 1, the hydroxylation product will spontaneously decompose to the free resorufin dye. In addition, the benzyloxy group, attached to the carbon carrying the two hydrogens designated H^2, contributes an inductive electronic effect on that carbon, which can stabilize the radical formed during abstraction of one of the H^2 hydrogens by a cytochrome P450.
Optimization of assay conditions was, and is preferably, accomplished through statistically validated Design of Experiments methodologies, using the commercial software package "Design-Expert®" produced by Stat-Ease® Inc. The data shown in FIGS. 4 and 5 were obtained with initial optimization.
For further understanding these terms in the context of this invention, attention is directed to FIG. 4 and the analysis of FIG. 4.

[2] = target: T2, CYP 2B6 (Homo sapiens, UniProt P20813); assay: Kinetics of fluorogenic substrates with CYP 2B6
T2 sequence (P20813 1-491): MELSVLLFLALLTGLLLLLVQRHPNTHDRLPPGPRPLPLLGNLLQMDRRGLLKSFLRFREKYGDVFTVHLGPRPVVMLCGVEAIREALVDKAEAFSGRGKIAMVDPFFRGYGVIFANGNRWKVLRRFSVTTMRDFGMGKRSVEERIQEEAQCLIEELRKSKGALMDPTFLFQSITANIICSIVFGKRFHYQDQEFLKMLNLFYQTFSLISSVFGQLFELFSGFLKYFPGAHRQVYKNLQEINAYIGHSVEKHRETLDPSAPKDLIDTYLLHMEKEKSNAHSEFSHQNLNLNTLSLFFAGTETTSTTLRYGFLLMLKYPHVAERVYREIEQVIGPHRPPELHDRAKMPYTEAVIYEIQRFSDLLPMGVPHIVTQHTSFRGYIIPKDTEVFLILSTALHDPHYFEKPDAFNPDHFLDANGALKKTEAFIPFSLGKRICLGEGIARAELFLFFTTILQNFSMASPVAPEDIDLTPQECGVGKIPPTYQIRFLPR

[3] = target: T1, CYP 3A4; assay: Rate of hydroxylation of BOM-09B by CYP 3A4; type: biochemical
Description: The racemic compound mixture (designated BOM-09B) was tested for activity with cytochrome P450 isozymes. […] The CYP 3A4 assay was performed in a 96-well plate at 37° C. in a volume of 100 μL/well. BOM-09B was diluted from a stock solution of 1 mM in acetonitrile to a 4×concentration of 80 μM in 100 mM K+ phosphate buffer of which 25 μl was added to the appropriate wells. […] The cytochrome P450 isozyme CYP3A4 was diluted to give a 2 pmol enzyme per well. Enzymic conversion of the substrate to products was allowed to proceed for 1 hour with fluorescence reads taken every 4 minutes on a fluorescence microtiter plate reader. The solution was illuminated with an 395/25 nm excitation filter and fluorescence emission was detected through a 460/40 nm the emission filter.

[4] = target: CYP 2C9 (Homo sapiens, UniProt P11712); assay: Kinetics of fluorogenic substrates with CYP 2C9; type: biochemical
CYP 2C9, sequence (P11712 whole entry): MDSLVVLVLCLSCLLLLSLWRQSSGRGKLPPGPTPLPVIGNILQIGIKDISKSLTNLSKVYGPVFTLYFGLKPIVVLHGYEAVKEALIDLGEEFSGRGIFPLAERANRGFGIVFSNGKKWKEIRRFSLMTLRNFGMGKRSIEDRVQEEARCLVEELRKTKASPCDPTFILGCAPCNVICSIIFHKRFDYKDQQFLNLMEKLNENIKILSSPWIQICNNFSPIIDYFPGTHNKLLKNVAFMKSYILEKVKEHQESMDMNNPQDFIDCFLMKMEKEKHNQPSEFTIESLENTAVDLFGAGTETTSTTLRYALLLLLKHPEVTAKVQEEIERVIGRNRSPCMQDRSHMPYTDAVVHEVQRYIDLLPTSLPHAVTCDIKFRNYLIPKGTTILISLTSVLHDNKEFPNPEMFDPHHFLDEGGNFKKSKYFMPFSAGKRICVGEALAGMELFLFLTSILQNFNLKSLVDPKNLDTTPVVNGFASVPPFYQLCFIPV

[5] = target: CYP 2D6 (Homo sapiens, UniProt P10635); assay: Kinetics of fluorogenic substrates with CYP 2D6; type: biochemical
CYP 2D6, sequence (P10635 whole entry): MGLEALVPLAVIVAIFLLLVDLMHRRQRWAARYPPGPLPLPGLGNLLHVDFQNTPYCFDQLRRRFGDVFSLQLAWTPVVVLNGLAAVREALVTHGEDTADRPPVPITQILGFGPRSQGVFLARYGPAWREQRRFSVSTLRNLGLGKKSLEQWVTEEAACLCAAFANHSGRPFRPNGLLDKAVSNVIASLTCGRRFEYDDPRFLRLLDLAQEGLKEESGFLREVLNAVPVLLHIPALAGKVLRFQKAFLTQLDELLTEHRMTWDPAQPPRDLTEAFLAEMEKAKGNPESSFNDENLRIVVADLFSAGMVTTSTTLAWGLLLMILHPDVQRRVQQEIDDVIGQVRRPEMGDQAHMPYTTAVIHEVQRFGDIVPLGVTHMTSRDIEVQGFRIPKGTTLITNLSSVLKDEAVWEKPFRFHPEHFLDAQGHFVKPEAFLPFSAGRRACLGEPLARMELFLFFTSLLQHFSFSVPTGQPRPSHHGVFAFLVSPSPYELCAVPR

[6] = target: T2, CYP 2B6
[7] = target: CYP 2C19 (Homo sapiens, UniProt P33261); assay: Kinetics of fluorogenic substrates with CYP 2C19; type: biochemical
CYP 2C19, sequence (P33261 whole entry): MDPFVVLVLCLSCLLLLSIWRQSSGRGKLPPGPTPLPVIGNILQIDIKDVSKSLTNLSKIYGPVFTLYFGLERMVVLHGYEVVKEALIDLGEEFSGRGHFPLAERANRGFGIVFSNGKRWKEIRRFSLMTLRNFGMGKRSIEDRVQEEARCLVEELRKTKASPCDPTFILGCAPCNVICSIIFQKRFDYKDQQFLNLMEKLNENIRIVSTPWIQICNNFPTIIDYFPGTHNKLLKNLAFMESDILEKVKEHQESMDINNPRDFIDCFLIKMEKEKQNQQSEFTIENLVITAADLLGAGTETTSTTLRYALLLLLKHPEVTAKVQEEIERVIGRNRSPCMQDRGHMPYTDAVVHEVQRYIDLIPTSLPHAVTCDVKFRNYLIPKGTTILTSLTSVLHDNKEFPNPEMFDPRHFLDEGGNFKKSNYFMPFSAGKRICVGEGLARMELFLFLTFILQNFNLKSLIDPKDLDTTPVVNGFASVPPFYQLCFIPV

[8] = target: T3, CYP 1A2 (Homo sapiens, UniProt P05177); assay: Kinetics of fluorogenic substrates with CYP 1A2; type: biochemical
T3 sequence (P05177 1-516): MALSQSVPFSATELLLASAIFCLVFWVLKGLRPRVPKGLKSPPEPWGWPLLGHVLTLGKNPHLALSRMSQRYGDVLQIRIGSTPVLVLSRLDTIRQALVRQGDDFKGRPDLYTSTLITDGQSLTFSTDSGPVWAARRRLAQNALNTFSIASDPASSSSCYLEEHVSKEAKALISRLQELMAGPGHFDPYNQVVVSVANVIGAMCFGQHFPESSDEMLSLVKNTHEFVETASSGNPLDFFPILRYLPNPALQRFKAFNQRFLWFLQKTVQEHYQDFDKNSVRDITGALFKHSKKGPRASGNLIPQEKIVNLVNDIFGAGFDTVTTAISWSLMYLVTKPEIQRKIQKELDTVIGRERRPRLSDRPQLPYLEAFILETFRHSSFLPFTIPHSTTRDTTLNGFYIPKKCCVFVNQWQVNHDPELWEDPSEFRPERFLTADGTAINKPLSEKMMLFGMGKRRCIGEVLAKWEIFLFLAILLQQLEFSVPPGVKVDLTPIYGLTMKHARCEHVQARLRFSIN

T1 sequence (P08684 whole entry): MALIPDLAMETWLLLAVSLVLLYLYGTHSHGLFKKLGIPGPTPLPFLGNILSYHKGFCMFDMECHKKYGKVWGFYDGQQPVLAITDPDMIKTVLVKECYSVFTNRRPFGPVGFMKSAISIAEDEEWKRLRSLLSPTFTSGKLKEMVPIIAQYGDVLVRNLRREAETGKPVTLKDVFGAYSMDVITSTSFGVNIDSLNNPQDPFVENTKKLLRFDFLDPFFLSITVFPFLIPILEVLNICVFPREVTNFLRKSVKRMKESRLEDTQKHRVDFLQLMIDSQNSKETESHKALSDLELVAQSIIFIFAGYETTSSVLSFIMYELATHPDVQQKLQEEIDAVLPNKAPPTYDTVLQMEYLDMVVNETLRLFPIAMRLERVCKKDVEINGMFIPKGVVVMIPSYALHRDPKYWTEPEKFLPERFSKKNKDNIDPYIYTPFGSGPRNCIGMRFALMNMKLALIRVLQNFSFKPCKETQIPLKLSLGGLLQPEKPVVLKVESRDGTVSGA

kcat ([1]; CYP 3A4): 0.0017 s⁻¹
kcat/Km ([1]; CYP 3A4): 377 M⁻¹ s⁻¹
type of kinetics ([1]; CYP 3A4): Michaelis-
turnover rate (kcat) ([1]; CYP 3A4, FIG. 4 data): 0.00167 s⁻¹
v (1.25 uM), turnover rate at 1.25 μM ([1]; CYP 3A4, substrate 1.25 uM): 0.02 min⁻¹
v (10 uM), turnover rate at 10 μM ([1]; CYP 3A4, substrate 10 uM): 0.08 min⁻¹
type of kinetics ([2]; CYP 2B6): not Michaelis-
v (1.25 uM), turnover rate at 1.25 μM ([2]; CYP 2B6, substrate 1.25 uM): 0.42 min⁻¹
v (10 uM), turnover rate at 10 μM ([2]; CYP 2B6, substrate 10 uM): 0.42 min⁻¹
SMILES: O=c1ccc2nc3ccc(OCc4ccccc4)cc3oc-2c1 [BR, Benzylresorufin, reference compound]

activity with the CYP 3A4 isozyme [3]: particularly high activity
conversion rate ([3]; 37° C., pH 8.0, 1 hour): 0.75 pmol substrate/pmol enzyme·min
rate of conversion compared with BOMCC ([3]; identical conditions): half that of BOMCC
SMILES: NC1CCCCC1NC(=O)c1cc2ccc(OCOCc3ccccc3)cc2oc1=O (racemic) [BOM-09B]

kcat ([4]; CYP 2C9): 0.0067 s⁻¹
type of kinetics ([4]; CYP 2C9): Michaelis-
v (1.25 uM), turnover rate at 1.25 μM ([4]; CYP 2C9, substrate 1.25 uM): 0.01 min⁻¹
v (10 uM), turnover rate at 10 μM ([4]; CYP 2C9, substrate 10 uM): 0.03 min⁻¹
kcat ([5]; CYP 2D6): 0.005 s⁻¹
type of kinetics ([5]; CYP 2D6): Michaelis-
v (1.25 uM), turnover rate at 1.25 μM ([5]; CYP 2D6, substrate 1.25 uM): 0.03 min⁻¹
v (10 uM), turnover rate at 10 μM ([5]; CYP 2D6, substrate 10 uM): 0.10 min⁻¹
kcat [6]: 0.0483 s⁻¹
kcat/Km [6]: 34524 M⁻¹ s⁻¹
type of kinetics [6]: Michaelis-
v (1.25 uM), turnover rate at 1.25 μM [6]: 1.63 min⁻¹
v (10 uM), turnover rate at 10 μM [6]: 2.53 min⁻¹
Km ([6]; cyp 2b6): 1.4 µM
SMILES: COc1ccc2c(C(F)(F)F)cc(=O)oc2c1 [MFC, 7-Methoxy-4-trifluoromethylcoumarin, reference compound]

conversion to the same fluorescent product vs the most closely structurally-related substrate ([7]; CYP 2C19): more efficient conversion
kcat ([7]; CYP 2C19): 0.095 s⁻¹
kcat/Km ([7]; CYP 2C19): 5723 M⁻¹ s⁻¹
type of kinetics ([7]; CYP 2C19): Michaelis-
v (1.25 uM), turnover rate at 1.25 μM ([7]; CYP 2C19, substrate 1.25 uM): 0.34 min⁻¹
v (10 uM), turnover rate at 10 μM ([7]; CYP 2C19, substrate 10 uM): 2.22 min⁻¹
conversion to the corresponding fluorescent product vs 3CEC ([8]; CYP 1A2): a little bit more efficiently
kcat ([8]; CYP 1A2): 0.35 s⁻¹
kcat/Km ([8]; CYP 1A2): 31818 M⁻¹ s⁻¹
type of kinetics ([8]; CYP 1A2): Michaelis-
v (1.25 uM), turnover rate at 1.25 μM ([8]; CYP 1A2, substrate 1.25 uM): 1.77 min⁻¹
v (10 uM), turnover rate at 10 μM ([8]; CYP 1A2, substrate 10 uM): 9.95 min⁻¹
SMILES: CCOCOc1ccc2cc(C#N)c(=O)oc2c1 [EOMCC]

From US6143492A, “Optical molecular sensors for cytochrome P450 activity” (Aurora Biosciences Corporation, priority 1999, dated 2000)
